In US10906940B2, “Antimicrobial peptides, pharmaceutical compositions, and methods of use thereof” (priority 2014, dated 2021):
Where a SMILES comes first, the peptide text is derived from it. Bridges are numbered along the chain shown (N, C = ends). [ ]: non-standard residue; d: D form. The star is where a group is joined. Tridecanoyl = CCCCCCCCCCCCC(=O)*; Undecanoyl = CCCCCCCCCCC(=O)*; dOrn = NCCC[C@@H](N)C(=O)O

Tests used:
E. coli CVM 15100 (mir1) = format: cell-based, Escherichia coli
Excerpt: (§1) The same MIC assay as in Example 6 was used to determine the antimicrobial susceptibility of Compound A, L-form (FIG. 15), and several variants. One variant was Compound A, D-form, with D-Lysine at position 7. Compound B is a variant in the fatty acid chain, with a fatty acid chain composition of C15H29O, and having D-Lys at position 7. Compound C is a variant in the fatty acid chain with a fatty acid chain composition of C11H21O, and having D-Lys at position 7. Variant D is a sequence variant with Phe at position 6 of the cyclic peptide, and having D-Lys at position 7. All variants were chemically synthesized.

[1] = test system: E. coli CVM 40131 (ctx-m-2); format: cell-based, Escherichia coli
Excerpt: as §1

E. coli CVM 15104 (shv3) = format: cell-based, Escherichia coli
Excerpt: as §1

[2] = test system: E. coli CVM 40130 (oxa-9); format: cell-based, Escherichia coli
Excerpt: as §1

E. coli CVM40148 (veb-1) = format: cell-based, Escherichia coli
Excerpt: as §1

[3] = test system: E. coli CVM 40136 (tem 52b); format: cell-based, Escherichia coli
Excerpt: as §1

[4] = test system: E. coli CVM 40133 (ctx-m-14); format: cell-based, Escherichia coli
Excerpt: as §1

[5] = test system: E. coli CVM 40139 (fox-1); format: cell-based, Escherichia coli
Excerpt: as §1

[6] = test system: E. coli CVM 35778 (ctx-m-2); format: cell-based, Escherichia coli
Excerpt: as §1

[7] = test system: E. coli CVM 40138 (LCR-1); format: cell-based, Escherichia coli
Excerpt: as §1

E. coli CVM40146 (vim-1) = format: cell-based, Escherichia coli
Excerpt: as §1

[8] = test system: E. coli CVM 40143 (act-1); format: cell-based, Escherichia coli
Excerpt: as §1

[9] = test system: E. coli CVM 40147 (vim-2); format: cell-based, Escherichia coli
Excerpt: as §1

[10] = test system: E. coli CVM 40126 (oxa-1); format: cell-based, Escherichia coli
Excerpt: as §1

[11] = test system: E. coli CVM 40137 (DHA-1); format: cell-based, Escherichia coli
Excerpt: as §1

[12] = test system: E. coli CVM 40127 (oxa-2); format: cell-based, Escherichia coli
Excerpt: as §1

[13] = test system: E. coli CVM 40132 (ctx-m-9); format: cell-based, Escherichia coli
Excerpt: as §1

[14] = test system: E. coli CVM 40128 (oxa-7); format: cell-based, Escherichia coli
Excerpt: as §1

[15] = test system: E. coli CVM 40129 (oxa-5); format: cell-based, Escherichia coli
Excerpt: as §1

[16] = test system: E. coli CVM 40134 (ctx-m-15); format: cell-based, Escherichia coli
Excerpt: as §1

[17] = test system: E. coli CVM 40141 (imp-1); format: cell-based, Escherichia coli
Excerpt: as §1

[18] = test system: Serratia marcescens SAMN 04276914; format: cell-based; conditions: SAMN 04276914
Excerpt: as §1

[19] = test system: Serratia marcescens SBJ-9047; format: cell-based; conditions: SBJ-9047
Excerpt: as §1

[20] = test system: Serratia marcescens SAMN 04276915; format: cell-based; conditions: SAMN 04276915
Excerpt: as §1

[21] = test system: Salmonella CVM 40118 (oxa-1); format: cell-based
Excerpt: as §1

[22] = test system: Serratia marcescens SBJ-8283; format: cell-based; conditions: SBJ-8283
Excerpt: as §1

[23] = test system: Salmonella CVM 40119 (tem 12); format: cell-based
Excerpt: as §1

[24] = test system: Serratia marcescens SAMN04022954; format: cell-based; conditions: SAMN04022954
Excerpt: as §1

[25] = test system: Enterobacter cloacae SBJ-9395; format: cell-based; conditions: SBJ-9395
Excerpt: as §1

[26] = test system: Salmonella CVM 1290 (cmy2); format: cell-based
Excerpt: as §1

E. faecalis ATCC 51575 = experiment: microbe, parasite or virus in culture; format: cell-based, Enterococcus faecalis; conditions: ATCC 51575
Excerpt: as §1

E. faecalis BAA-2365 = experiment: microbe, parasite or virus in culture; format: cell-based, Enterococcus faecalis; conditions: BAA-2365
Excerpt: as §1

S. aureus 14 = experiment: microbe, parasite or virus in culture; format: cell-based, Staphylococcus aureus; conditions: 14
Excerpt: as §1

S. aureus 10 = experiment: microbe, parasite or virus in culture; format: cell-based, Staphylococcus aureus; conditions: 10
Excerpt: as §1

S. aureus 6 = experiment: microbe, parasite or virus in culture; format: cell-based, Staphylococcus aureus; conditions: 6
Excerpt: as §1

S. aureus 8 = experiment: microbe, parasite or virus in culture; format: cell-based, Staphylococcus aureus; conditions: 8
Excerpt: as §1

S. aureus 2 = experiment: microbe, parasite or virus in culture; format: cell-based, Staphylococcus aureus; conditions: 2
Excerpt: as §1

S. aureus 19 = experiment: microbe, parasite or virus in culture; format: cell-based, Staphylococcus aureus; conditions: 19
Excerpt: as §1

S. aureus 12 = experiment: microbe, parasite or virus in culture; format: cell-based, Staphylococcus aureus; conditions: 12
Excerpt: as §1

S. aureus 4 = experiment: microbe, parasite or virus in culture; format: cell-based, Staphylococcus aureus; conditions: 4
Excerpt: as §1

Measured: MIC

CCCCCCCCCCC(=O)N[C@H](CCCN)C(=O)N[C@H](C(=O)N[C@@H]1C(=O)N[C@H](CCCN)C(=O)N[C@@H](CO)C(=O)N[C@@H](Cc2ccc(O)cc2)C(=O)N[C@H](CCCCN)C(=O)N[C@H](CO)C(=O)N[C@@H]([C@@H](C)CC)C(=O)N2CCC[C@H]2C(=O)N[C@@H]([C@@H](C)CC)C(=O)N2CCC[C@H]2C(=O)N[C@@H]([C@@H](C)CC)C(=O)O[C@@H]1C)C(C)C [Compound C] (Undecanoyl-[dOrn]VT[dOrn]SY[dK][dS]IPIPI; ester 3-C; N-terminus assumed)
64 µg/mL: [18] | [19] | [24]
≥128 µg/mL: [20]
16 µg/mL: [6] | [9] | [26]
32 µg/mL: [17] | [22] | E. faecalis ATCC 51575 | E. faecalis BAA-2365
4 µg/mL: [21]
8 µg/mL: E. coli CVM 15100 (mir1) | [1] | E. coli CVM 15104 (shv3) | [2] | E. coli CVM40148 (veb-1) | [3] | [4] | [5] | [7] | E. coli CVM40146 (vim-1) | [8] | [10] | [11] | [12] | [13] | [14] | [15] | [16] | [23] | [25] | S. aureus 14 | S. aureus 10 | S. aureus 6 | S. aureus 8 | S. aureus 2 | S. aureus 19 | S. aureus 12 | S. aureus 4

CCCCCCCCCCCCC(=O)N[C@H](CCCN)C(=O)N[C@H](C(=O)N[C@@H]1C(=O)N[C@H](CCCN)C(=O)N[C@@H](CO)C(=O)N[C@@H](Cc2ccccc2)C(=O)N[C@H](CCCCN)C(=O)N[C@H](CO)C(=O)N[C@@H]([C@@H](C)CC)C(=O)N2CCC[C@H]2C(=O)N[C@@H]([C@@H](C)CC)C(=O)N2CCC[C@H]2C(=O)N[C@@H]([C@@H](C)CC)C(=O)O[C@@H]1C)C(C)C [Variant D] (Tridecanoyl-[dOrn]VT[dOrn]SF[dK][dS]IPIPI; ester 3-C; N-terminus assumed)
≥128 µg/mL: [19] | [20] | [24]
16 µg/mL: E. coli CVM 15104 (shv3) | [3] | [6] | [8] | [9] | [17]
32 µg/mL: [22] | [25]
64 µg/mL: [18]
8 µg/mL: E. coli CVM 15100 (mir1) | [1] | [2] | E. coli CVM40148 (veb-1) | [4] | [5] | [7] | E. coli CVM40146 (vim-1) | [10] | [11] | [12] | [13] | [14] | [15] | [16] | [21] | [23] | [26] | E. faecalis ATCC 51575 | E. faecalis BAA-2365 | S. aureus 14 | S. aureus 10 | S. aureus 6 | S. aureus 8 | S. aureus 2 | S. aureus 19 | S. aureus 12 | S. aureus 4
